Data: patent US20230017597A1, “8-SUBSTITUTED STYRYL XANTHINE DERIVATIVES AND USES THEREOF” (SUNSHINE LAKE PHARMA CO., LTD., priority 2019, published 2023)

Tests used:
[1] = target: T1, human adenosine A2A receptor (Homo sapiens, UniProt P29274); test: Antagonizing effect on human adenosine A2A receptor (NECA-stimulated cAMP, TR-FRET, HEK-293 cells); type: cell-based; conditions: inhibition of cAMP produced by NECA (3 nM), HEK-293 cells expressing human recombinant A2A receptor
T1 construct: expressed in transfected cells; host or cells: HEK-293
T1 sequence (P29274 whole entry): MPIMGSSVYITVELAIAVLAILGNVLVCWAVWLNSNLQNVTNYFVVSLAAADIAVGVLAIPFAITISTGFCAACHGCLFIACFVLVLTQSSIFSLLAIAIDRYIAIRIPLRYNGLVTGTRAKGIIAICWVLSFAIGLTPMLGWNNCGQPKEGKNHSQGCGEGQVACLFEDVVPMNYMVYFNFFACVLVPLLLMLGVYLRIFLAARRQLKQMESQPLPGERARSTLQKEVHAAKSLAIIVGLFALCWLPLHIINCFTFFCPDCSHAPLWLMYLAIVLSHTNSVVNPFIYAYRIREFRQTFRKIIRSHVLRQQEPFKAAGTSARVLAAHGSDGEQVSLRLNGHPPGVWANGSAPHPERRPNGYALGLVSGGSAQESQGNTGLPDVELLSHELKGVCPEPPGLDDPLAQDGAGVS
Procedure: The experimental system uses human recombinant adenosine A2A receptor, which is stably expressed in HEK-293 cell line. HEK-293 cells were inoculated into culture plate at a density of 1.25×10^5 cells/mL. The medium was changed by modified HBSS solution with pH 7.4, different concentrations of test compounds ([…], 1 μM, […], 10 nM, 1 nM, 0.1 nM) and solvents (PBS with 0.1% DMSO) were added, and the plate was incubated at 37° C. for 10 min. cAMP (cyclic adenosine monophosphate) concentration in culture medium was detected by TR-FRET method. NECA was used as a positive control in this experiment, (1) test compounds alone were used to stimulate cells to produce a certain amount of cAMP, and then NECA (0.1 μM) alone was used to stimulate cells to produce a certain amount of cAMP. A test compound is considered to have agonistic activity on adenosine A2A receptor if the test compound alone stimulates cells to produce cAMP more than 50% of the amount of cAMP produced by NECA (0.1 μM) alone. (2) All cells were first incubated with test compounds and then stimulated with NECA (3 nM). In addition, NECA (3 nM) alone was used to stimulate cells to produce a certain amount of cAMP. […] IC50 was calculated using MathIQ™ (ID Business Solutions Ltd., UK) through nonlinear, least squares regression equation analysis.

[2] = Pharmacokinetic evaluation in rats after intravenous or gavage administration; type: in vivo, SD rats; conditions: for AUC(0-inf) / AUC(0-t) / Cmax / MRT inf / Tmax / clearance / half-life / Vd: SD, rat, plasma; for Vd: read-out: Vss; for F: gavage 5 mg/kg vs intravenous 1 mg/kg
Procedure: (§1) The LC-MS/MS system for analysis includes the Agilent 1200 series vacuum degasser, a quaternary pump, an orifice plate sampler, a thermostatted column oven, and an API4000Qtrap triple quadrupole mass spectrometer with an electrospray ionization source (ESI).
(§2) Waters ACQUITY UPLC CSH C18, 2.1×50 mm, 1.7 μm column was used for analysis, and 0.8 μL of sample was injected. Analytical conditions: mobile phase was H2O+2 mM HCOONH4 (ammonium formate)+0.1% FA (formic acid) (mobile phase A) and MeOH (methanol)+2 mM HCOONH4 (ammonium formate)+0.1% FA (formic acid) (mobile phase B). Flow rate was 0.7 mL/min.
The experiment was divided into two groups: one was administered by intravenous injection, and the other was administered by intragastric administration. The compound of the present invention was administered to a test animal (overnight fast for 12 hours) in the form of 10% DMA (heating)+60% PEG400+30% saline solution. For the group of intravenous administration, the administration dose was 1 mg/kg, and vein blood samples (0.3 mL) were collected at the time points of 0.083, 0.25, 0.5, 1.0, 2.0, 5.0, 7.0 and 24 h after administration. EDTA-K2 as anticoagulant was added into the blood vessel. The plasma solutions were collected by centrifuging each blood sample at 3,000 rpm or 4,000 rpm for 10 minutes and kept at −20° C. or −70° C. For the group of intragastric administration, the administration dose was 5 mg/kg, and vein blood samples (0.3 mL) were collected at the time points of 0.25, 0.5, 1.0, 2.0, 5.0, 7.0 and 24 h after administration. EDTA-K2 as anticoagulant was added into the blood vessel. The plasma solutions were collected by centrifuging each blood sample at 3,000 rpm or 4,000 rpm for 10 minutes and kept at −20° C. or −70° C.
20 μL of plasma was taken, 120 μL of IS working solution was added to the plasma, and the plasma was vortexed for 2 min. The mixed solution was then centrifuged at 12,000 rpm for 2 min. 100 μL of the supernatant was taken, 110 μL of MeOH/H2O (v/v=1/1) was added, and the solution was vortexed for 2 minutes, then 5 μL was taken for injection into the LC-MS/MS system. LC-MS/MS method was used to detect the concentration of target compounds, and non-compartment model was used to calculate pharmacokinetic parameters.

[3] = Pharmacokinetic evaluation in beagles after intravenous or gavage administration; type: in vivo; conditions: for AUC(0-inf) / AUC(0-t) / Cmax / MRT inf / Tmax / clearance / half-life / Vd: beagle, dog, plasma; for Vd: read-out: Vss; for F: gavage 2.5 mg/kg vs intravenous 0.5 mg/kg
Procedure: The test animals are mice and/or dogs.
as §1
as §2, with “A waters xbridge C18 UPLC,” for “Waters ACQUITY UPLC CSH C18,”, “[…]” for “1.7 μm”, “analysis” for “analysis,”, “0.5” for “0.8”, “The flow” for “Flow”
The experiment was divided into two groups: one was administered by intravenous injection, and the other was administered by intragastric administration. The compound of the present invention was administered to test animals in the form of 10% DMA+60% PEG400+30% saline solution. […] Each blood sample was centrifuged at 3,000 rpm or 4,000 rpm for 10 minutes. The plasma solutions were collected and anticoagulant was EDTA-K2. The plasma solutions were then kept at −20° C. or −70° C. […]
10 μL of plasma was taken, 120 μL of IS working solution was added to the plasma, and the plasma was vortexed for 2 min. The mixed solution was then centrifuged at 12,000 rpm for 2 min. 80 μL of the supernatant was taken, 140 μL of MeOH/H2O (v/v=1/1) was added, and the solution was vortexed for 2 minutes, then 1.0 μL was taken for injection into the LC-MS/MS system. LC-MS/MS method was used to detect the concentration of target compounds, and non-compartment model was used to calculate pharmacokinetic parameters.

[4] = intravenous injection, 0.5 mg/kg

SMILES | IC50 [1] | AUC(0-inf) ([2]; intravenous injection, 1 mg/kg) | AUC(0-t) ([2]; intravenous injection, 1 mg/kg) | Cmax ([2]; intravenous injection, 1 mg/kg) | MRT inf ([2]; intravenous injection, 1 mg/kg) | Tmax ([2]; intravenous injection, 1 mg/kg) | clearance ([2]; intravenous injection, 1 mg/kg) | half-life ([2]; intravenous injection, 1 mg/kg) | Vd ([2]; intravenous injection, 1 mg/kg) | AUC(0-inf) ([2]; po, gavage, 5 mg/kg) | AUC(0-t) ([2]; po, gavage, 5 mg/kg) | Cmax ([2]; po, gavage, 5 mg/kg) | MRT inf ([2]; po, gavage, 5 mg/kg) | Tmax ([2]; po, gavage, 5 mg/kg) | half-life ([2]; po, gavage, 5 mg/kg) | F [2] | AUC(0-inf) [3, 4] | AUC(0-t) [3, 4] | Cmax [3, 4] | MRT inf [3, 4] | further results
CCn1c(=O)c2c(nc(/C=C/c3ccc(OC4CCNCC4)cc3)n2C)n(CC)c1=O [Example 1, (E)-1,3-diethyl-7-methyl-8-(4-(piperidin-4-yloxy)styryl)-1H-purine-2,6(3H,7H)-dione] | 550 nM |  |  |  |  |  |  |  |  |  |  |  |  |  |  |  |  |  |  |  | 
CCN1CCC(Oc2ccc(/C=C/c3nc4c(c(=O)n(CC)c(=O)n4CC)n3C)cc2)CC1 [Example 3, (E)-1,3-diethyl-7-methyl-8-(4-((1-ethylpiperidin-4-yl)oxy)styryl)-1H-purine-2,6(3H,7H)-dione] | 1480 nM |  |  |  |  |  |  |  |  |  |  |  |  |  |  |  |  |  |  |  | 
CCn1c(=O)c2c(nc(/C=C/c3ccc(OC4CCN(C(C)=O)CC4)cc3)n2C)n(CC)c1=O [Example 6, (E)-8-(4-((1-acetylpiperidin-4-yl)oxy)styryl)-1,3-diethyl-7-methyl-1H-purine-2,6 (3H,7H)-dione] | 350 nM | 6290 ng·h/mL | 6230 ng·h/mL | 1610 ng/mL | 4.37 h | 0.083 h | 2.65 mL/min/kg | 3.82 h | 0.696 L/kg | 40400 ng·h/mL | 36900 ng·h/mL | 2930 ng/mL | 9.22 h | 1.5 h | 6.96 h | 118.4% | 6110 ng·h/mL | 5830 ng·h/mL | 634 ng/mL | 7.37 h | Tmax [3, 4]: 0.25 h; clearance [3, 4]: 1.36 mL/min/kg; half-life [3, 4]: 5.81 h; Vd [3, 4]: 0.604 L/kg; AUC(0-inf) ([3]; po, gavage, 2.5 mg/kg): 56500 ng·h/mL; AUC(0-t) ([3]; po, gavage, 2.5 mg/kg): 47200 ng·h/mL; Cmax ([3]; po, gavage, 2.5 mg/kg): 3320 ng/mL; MRT inf ([3]; po, gavage, 2.5 mg/kg): 12.5 h; Tmax ([3]; po, gavage, 2.5 mg/kg): 2.67 h; half-life ([3]; po, gavage, 2.5 mg/kg): 9.11 h; F [3]: 170.5%
CCn1c(=O)c2c(nc(/C=C/c3ccc(OC4CCN(S(C)(=O)=O)CC4)cc3)n2C)n(CC)c1=O [Example 8, (E)-1,3-diethyl-7-methyl-8-(4-((1-(methylsulfonyl)piperidin-4-yl)oxy)styryl)-1H-purine-2,6(3H, 7H)-dione] | 750 nM | 1830 ng·h/mL | 1810 ng·h/mL | 817 ng/mL | 3.1 h | 0.083 h | 9.1 mL/min/kg | 4.64 h | 1.69 L/kg | 11900 ng·h/mL | 11900 ng·h/mL | 2030 ng/mL | 4.07 h | 1.67 h | 2.8 h | 131.5% | 6310 ng·h/mL | 4990 ng·h/mL | 775 ng/mL | 14.4 h | Tmax [3, 4]: 0.083 h; clearance [3, 4]: 1.32 mL/min/kg; half-life [3, 4]: 9.43 h; Vd [3, 4]: 1.14 L/kg; AUC(0-inf) ([3]; po, gavage, 2.5 mg/kg): 31800 ng·h/mL; AUC(0-t) ([3]; po, gavage, 2.5 mg/kg): 22700 ng·h/mL; Cmax ([3]; po, gavage, 2.5 mg/kg): 1720 ng/mL; MRT inf ([3]; po, gavage, 2.5 mg/kg): 18.1 h; Tmax ([3]; po, gavage, 2.5 mg/kg): 0.667 h; half-life ([3]; po, gavage, 2.5 mg/kg): 11.5 h; F [3]: 91.1%
